In PMC9326877 (Journal of Food and Drug Analysis, 2018):

Target: P-glycoprotein (P-gp) (Sus scrofa, UniProt K7GMM7)
Assay type: in vitro ADME, pig (Sus scrofa domesticus)
Conditions: Landrace, pig

Chain of P-glycoprotein (P-gp) (K7GMM7 1-1248): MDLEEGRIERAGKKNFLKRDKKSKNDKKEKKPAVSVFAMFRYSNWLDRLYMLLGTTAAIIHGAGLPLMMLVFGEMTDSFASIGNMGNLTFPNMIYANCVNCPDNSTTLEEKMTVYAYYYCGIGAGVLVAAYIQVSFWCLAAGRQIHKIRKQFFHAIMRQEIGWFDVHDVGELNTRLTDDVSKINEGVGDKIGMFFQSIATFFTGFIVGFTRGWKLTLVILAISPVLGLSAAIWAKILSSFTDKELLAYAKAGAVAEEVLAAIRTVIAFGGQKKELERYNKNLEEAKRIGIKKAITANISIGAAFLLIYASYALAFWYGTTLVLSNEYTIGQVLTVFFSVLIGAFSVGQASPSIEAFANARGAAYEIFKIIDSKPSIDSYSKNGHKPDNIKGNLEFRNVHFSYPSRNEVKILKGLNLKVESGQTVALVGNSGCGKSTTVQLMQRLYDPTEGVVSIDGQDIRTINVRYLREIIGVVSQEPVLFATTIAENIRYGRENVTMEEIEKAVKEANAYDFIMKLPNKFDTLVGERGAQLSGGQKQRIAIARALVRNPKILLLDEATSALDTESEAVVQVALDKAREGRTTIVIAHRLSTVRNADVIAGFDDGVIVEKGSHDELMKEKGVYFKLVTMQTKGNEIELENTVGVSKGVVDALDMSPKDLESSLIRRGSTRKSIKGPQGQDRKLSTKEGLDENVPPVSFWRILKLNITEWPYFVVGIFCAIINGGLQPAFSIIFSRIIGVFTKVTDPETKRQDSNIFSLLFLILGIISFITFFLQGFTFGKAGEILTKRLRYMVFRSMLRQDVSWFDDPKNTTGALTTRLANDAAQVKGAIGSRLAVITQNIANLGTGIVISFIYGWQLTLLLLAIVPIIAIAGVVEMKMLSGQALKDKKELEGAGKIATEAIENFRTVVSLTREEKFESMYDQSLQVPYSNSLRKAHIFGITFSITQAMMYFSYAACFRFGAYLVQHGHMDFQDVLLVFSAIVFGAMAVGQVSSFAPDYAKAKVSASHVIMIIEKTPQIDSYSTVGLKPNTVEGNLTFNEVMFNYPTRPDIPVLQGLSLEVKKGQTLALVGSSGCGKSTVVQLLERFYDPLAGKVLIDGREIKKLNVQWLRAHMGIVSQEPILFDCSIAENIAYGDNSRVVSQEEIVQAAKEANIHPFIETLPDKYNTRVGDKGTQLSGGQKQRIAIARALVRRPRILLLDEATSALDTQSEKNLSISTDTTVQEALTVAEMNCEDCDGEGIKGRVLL

SMILES: COC(=O)c1ccccc1-c1c2ccc(=N)cc-2oc2cc(N)ccc12 [R123, Rhodamine 123]
- efflux ratio at 120 min, 5 μM: 2.2
